Measurements taken from patent US8314255B2, “Use of phthalimide and/or sulphonamide derivatives in the treatment of diseases which require reducing the TNF- α levels and an exogenous source of nitric oxide, phthalimide derivatives, sulphonamide derivatives, and a method for obtaining a sulphonamide derivative” (priority 2007, dated 2012).
Entries after “also recorded” stand apart in the source; their conditions may differ.

System: gamma-globin mRNA
Test: Gamma-globin gene expression in K562 cell culture by Real Time PCR
Assay type: cell-based, human
Details: for gene expression of gamma-globin: K562 erythroleukemic cells, Real Time PCR, 5-100 μM, 24-96 h
Procedure: The human leukemia cell line K562 ATCC (American Type Culture Collection), Philadelphia, Pa., USA was used. The cells were cultured in DMEM median (Dulbecco's Modified Eagle Medium, Invitrogen, USA) containing 10% of fetal bovine serum and glutamine. The cells were maintained at 37° C. under a 5% CO2 atmosphere. For the experiments, the cells were incubated at a density of 1×10^5 cells/mL. In order to carry out the culture with hemin (30 uM), it was added 72 hours before the beginning of the experiment with the desired compound.
The 0-hour time consisted in removing non-treated K562 cells. From this point, the respective compounds were added at the desired concentrations (5, 30, 60 and 100 uM), the cells were then maintained for […] under culture, without a new addition of any compound or substitution of the culture medium. Cell collections were performed at the following times: 0, 24, 48, 72 and 96 hours. The morphology of the cells was analyzed at these points through cytospin slides stained with Leishman and the cell viability was performed by staining with trypan blue in a Neuberger's chamber.
The extraction method with TRIzol reagent (Gibco-BRL, Gaithersburg, Md.) according to the manufacturer's instructions was used in order to obtain the RNA from K562. The sample containing K562 and TRIzol was incubated for 5 minutes at room temperature in order to achieve complete dissociation of the nucleoproteic complexes, 200 μL of chloroform (CHCl3) was added and thoroughly stirred, and incubation was again performed by 5 minutes at room temperature. After centrifugation for 15 minutes at 19,000 g at a temperature of 4° C., the supernatant was obtained and stored in another tube, proceeding immediately to the step of precipitation with 500 μL of cold isopropanol. After homogenization, a new incubation was carried out for 10 minutes at room temperature, followed by centrifugation for 10 minutes at 19,000 g at 4° C. The supernatant was disposed of and 800 μL of 70% cold ethanol was added to the precipitate, with a new centrifugation being carried out for 5 minutes at 14,000 at 4° C. […]
The RNA samples obtained were subjected to the complementary DNA (cDNA) synthesis using the Superscript III RTTM kit (Invitrogen, Life Technologies). After reading in a spectrophotometer (Gene Quant-Pharmacia, USA) and quantification, 3 μg of RNA were treated with the enzyme DNase I (Invitrogen, Life Technologies), for removal of contaminant DNA. […]
After reading in a spectrophotometer (Gene Quant-Pharmacia, USA) and quantification, cDNA aliquots were used as template in quantitative real-time PCR reactions. The technique consists in optically monitoring the fluorescence emitted during the PCR reaction, by means of the binding of a specific probe or dye to the newly synthesized strand. […]

Compound	concentration showing activity on gamma-globin expression (K562 cells, 48 hours)	gene expression of gamma-globin	gene expression of gamma-globin in the presence of hemin versus absence of hemin (K562 cells, hemin 30 uM, compared to the control)
Nc1ccc(S(=O)(=O)NO)cc1 [Compound IIA, 4-amino-N-hydroxybenzenesulphonamide]	5 µM	higher activity than the control; also recorded: higher than the increase provided by compound IE	–
O=C1c2ccccc2C(=O)N1c1ccc(CCO[N+](=O)[O-])cc1 [Compound IE, 2-[4-(1,3-dioxo-1,3-dihydro-2H-isoindol-2-yl)phenyl]ethyl nitrate]	–	increasing the gene expression of gamma-globin	did not show a significantly higher activity
